In paper PMC11721672, “Design, Structure–Activity Relationships, and Computational Modeling Studies of a Series of α-Helix Biased, Ultra-Short Glucagon-like Peptide-1 Receptor Agonists” (Molecules, 2024):
Square brackets hold non-standard residues; d marks the D form. Peptide text beside a SMILES is read from it. Bip = N[C@@H](Cc1ccc(-c2ccccc2)cc1)C(=O)O; αMePhe(2-F) = C[C@](N)(Cc1ccccc1F)C(=O)O; Phe(2-F) = N[C@@H](Cc1ccccc1F)C(=O)O; Aib = CC(C)(N)C(=O)O

Tests used:
[1] = molecular target: T1, hGLP1 receptor (Homo sapiens, UniProt P43220); assay: GLP-1 receptor agonism assay (HTRF cAMP, HEK cells co-expressing hGLP1 receptor and CRE-Luciferase); type: cell-based; conditions: for rescue of potency by Aib versus Ala substitution: Aib analog versus Ala analog at the same position; for decreased potency by Aib substitution: Aib-scanning, versus parent analog RXL-101; for Emax: HEK293, Table 6 potency profile; for pEC50 / dpEC50 (contribution of Cα-methylation) / EC50: 0% HSA; for dpEC50 (contribution of Cα-methylation): dpEC50 = pEC50 (Aib) − pEC50 (Ala) − 0.97, Aib peptide versus the Ala peptide of the same line; for decreased potency of Aib analog versus Ala analog: same position, Ala superior to Aib; for EC50: Table 2, Ala-scanning, >1000 nM = out of range, read-out: cAMP EC50; for decreased potency (Aib/Ala comparison): versus respective parent analog
T1 construct: expressed in transfected cells; host or cells: HEK (human embryonic kidney) cells co-expressing hGLP1 receptor and CRE-Luciferase
Protocol: Human embryonic kidney cells (HEK) co-expressing the hGLP1 receptor and CRE-Luciferase construct were used to determine agonist potency in this assay. The cells were thawed briefly at 37 °C, transferred to a sterile tube, and re-suspended in complete media at 37 °C. Cells were centrifuged at 1000 rpm for 5 min and collected; the cells were then re-suspended in an assay buffer consisting of Dulbecco’s phosphate-buffered saline (DPBS, GIBCO) with 500 μM of the phosphodiesterase inhibitor 3-isobutyl-1-methylxanthine (IBMX). The assay medium had 0% serum albumin, as specified in Table 1, Table 2, Table 3 and Table 4. The optimal cell density was determined to be 1000 cells/well. Cells were added to wells in 384-well plates containing appropriate pre-prepared dilutions of compounds (test peptides or reference compound exendin-4), sealed, and incubated with CO2 for 30 min. Test peptide solutions were diluted from 10 mM stock solutions to be used in two separate runs (performed in triplicate) from a maximal concentration of 1.0 μM, with 11 concentrations tested for each peptide using serial 1:3 dilution from this maximal concentration. […] The agonist assay was a homogeneous time-resolved fluorescence (HTRF) assay (Cisbio). Following incubation of the cells for 30 min with test or reference peptides, 5 μL of the cAMP acceptor cAMP-d2, prepared previously as a working solution from frozen stock (1:20 dilution), was added to each well of the assay plate along with 5 μL of anti-cAMP antibody-cryptate working solution (diluted 1:20 from frozen stock). The wells were incubated for 1 h at room temperature, and fluorescence was then read at 665 and 615 nm with an Envision reader with a TRF laser. Data were saved and analyzed using Prism software (GraphPad). Concentration–response analysis was performed using 4-parameter logistic fits of the resulting data, and EC50 values were obtained for each test and reference compound.

[2] = molecular target: human GLP-1 receptor (hGLP-1R); parameters: method as in PMID 31031702; conditions: read-out: potency at the human GLP-1 receptor; cited from earlier work

T1 sequence (P43220 24-463): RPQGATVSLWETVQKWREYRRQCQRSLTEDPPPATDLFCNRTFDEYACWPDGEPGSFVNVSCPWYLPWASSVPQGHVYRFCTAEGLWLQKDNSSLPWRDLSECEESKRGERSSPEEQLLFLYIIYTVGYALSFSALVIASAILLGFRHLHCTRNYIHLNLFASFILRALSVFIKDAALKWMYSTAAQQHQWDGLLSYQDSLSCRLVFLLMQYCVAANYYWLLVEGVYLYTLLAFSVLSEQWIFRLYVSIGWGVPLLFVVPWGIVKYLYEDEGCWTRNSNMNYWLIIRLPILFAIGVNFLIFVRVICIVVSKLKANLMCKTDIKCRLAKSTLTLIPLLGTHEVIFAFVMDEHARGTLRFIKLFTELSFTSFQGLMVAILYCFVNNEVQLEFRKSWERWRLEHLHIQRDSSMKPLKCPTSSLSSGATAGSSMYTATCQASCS

Compound | rescue of potency by Aib versus Ala substitution [1] | decreased potency by Aib substitution [1] [fold] | Emax [1] [%] | pEC50 ([1]; Table 4, Aib-scan peptides) | dpEC50 (contribution of Cα-methylation) [1] | decreased potency of Aib analog versus Ala analog [1] | EC50 [1] [nM] | pEC50 ([1]; Table 4, Ala-scan peptides) | decreased potency (Aib/Ala comparison) [1] | EC50 [2] [nM]
C[C@@H](O)[C@H](NC(=O)C(C)(C)NC(=O)[C@H](CCC(=O)O)NC(=O)C(C)(C)NC(=O)[C@@H](N)Cc1c[nH]cn1)C(=O)N[C@@](C)(Cc1ccccc1F)C(=O)N[C@H](C(=O)N[C@@H](CO)C(=O)N[C@@H](CC(=O)O)C(=O)N[C@@H](Cc1ccc(-c2ccccc2)cc1)C(=O)N[C@@H](Cc1ccc(-c2ccccc2)cc1)C(N)=O)[C@@H](C)O [RXL-3032, His-Aib-Glu-Aib-Thr-α-Me-Phe(2-F)-Thr-Ser-Asp-Bip-Bip-NH2] (H-H[Aib]E[Aib]T[αMePhe(2-F)]TSD[Bip][Bip]-NH2) | about 10 fold | ≥ 100 | 118 | 7.80 | 0.37 |  |  |  |  | 
C[C@@H](O)[C@H](NC(=O)[C@](C)(Cc1ccccc1F)NC(=O)C(C)(C)NC(=O)CNC(=O)[C@H](CCC(=O)O)NC(=O)C(C)(C)NC(=O)[C@@H](N)Cc1c[nH]cn1)C(=O)N[C@@H](CO)C(=O)N[C@@H](CC(=O)O)C(=O)N[C@@H](Cc1ccc(-c2ccccc2)cc1)C(=O)N[C@@H](Cc1ccc(-c2ccccc2)cc1)C(N)=O [RXL-3033, His-Aib-Glu-Gly-Aib-α-Me-Phe(2-F)-Thr-Ser-Asp-Bip-Bip-NH2] (H-H[Aib]EG[Aib][αMePhe(2-F)]TSD[Bip][Bip]-NH2) |  |  | 120 |  | −1.00 |  |  |  |  | 
C[C@@H](O)[C@H](NC(=O)CNC(=O)[C@H](CCC(=O)O)NC(=O)C(C)(C)NC(=O)[C@@H](N)Cc1c[nH]cn1)C(=O)N[C@@](C)(Cc1ccccc1F)C(=O)NC(C)(C)C(=O)N[C@@H](CO)C(=O)N[C@@H](CC(=O)O)C(=O)N[C@@H](Cc1ccc(-c2ccccc2)cc1)C(=O)N[C@@H](Cc1ccc(-c2ccccc2)cc1)C(N)=O [RXL-3034, His-Aib-Glu-Gly-Thr-α-Me-Phe(2-F)-Aib-Ser-Asp-Bip-Bip-NH2] (H-H[Aib]EGT[αMePhe(2-F)][Aib]SD[Bip][Bip]-NH2) |  | ≥ 100 | 106 | 7.04 | −1.60 | about 10 fold |  |  |  | 
C[C@@H](O)[C@H](NC(=O)CNC(=O)[C@H](CCC(=O)O)NC(=O)C(C)(C)NC(=O)[C@@H](N)Cc1c[nH]cn1)C(=O)N[C@@](C)(Cc1ccccc1F)C(=O)N[C@H](C(=O)NC(C)(C)C(=O)N[C@@H](CC(=O)O)C(=O)N[C@@H](Cc1ccc(-c2ccccc2)cc1)C(=O)N[C@@H](Cc1ccc(-c2ccccc2)cc1)C(N)=O)[C@@H](C)O [RXL-3035, His-Aib-Glu-Gly-Thr-α-Me-Phe(2-F)-Thr-Aib-Asp-Bip-Bip-NH2] (H-H[Aib]EGT[αMePhe(2-F)]T[Aib]D[Bip][Bip]-NH2) |  | ≥ 100 | 79.1 |  | −2.80 |  |  |  |  | 
C[C@@H](O)[C@H](NC(=O)CNC(=O)[C@H](CCC(=O)O)NC(=O)C(C)(C)NC(=O)[C@@H](N)Cc1c[nH]cn1)C(=O)N[C@@](C)(Cc1ccccc1F)C(=O)N[C@H](C(=O)N[C@@H](CO)C(=O)NC(C)(C)C(=O)N[C@@H](Cc1ccc(-c2ccccc2)cc1)C(=O)N[C@@H](Cc1ccc(-c2ccccc2)cc1)C(N)=O)[C@@H](C)O [RXL-3036, His-Aib-Glu-Gly-Thr-α-Me-Phe(2-F)-Thr-Ser-Aib-Bip-Bip-NH2] (H-H[Aib]EGT[αMePhe(2-F)]TS[Aib][Bip][Bip]-NH2) |  | ≥ 100 | 96.7 | 7.04 | −2.26 | about fivefold |  |  |  | 
C[C@H](NC(=O)[C@H](CCC(=O)O)NC(=O)C(C)(C)NC(=O)[C@@H](N)Cc1c[nH]cn1)C(=O)N[C@H](C(=O)N[C@@H](Cc1ccccc1F)C(=O)N[C@H](C(=O)N[C@@H](CO)C(=O)N[C@@H](CC(=O)O)C(=O)N[C@@H](Cc1ccc(-c2ccccc2)cc1)C(=O)N[C@@H](Cc1ccc(-c2ccccc2)cc1)C(N)=O)[C@@H](C)O)[C@@H](C)O [RXL-3037, His-Aib-Glu-Ala-Thr-Phe(2-F)-Thr-Ser-Asp-Bip-Bip-NH2] (H-H[Aib]EAT[Phe(2-F)]TSD[Bip][Bip]-NH2) |  |  | 73.8 |  |  |  | 210 | 6.46 | 2000 fold | 
C[C@H](NC(=O)[C@@H](NC(=O)CNC(=O)[C@H](CCC(=O)O)NC(=O)C(C)(C)NC(=O)[C@@H](N)Cc1c[nH]cn1)[C@@H](C)O)C(=O)N[C@H](C(=O)N[C@@H](CO)C(=O)N[C@@H](CC(=O)O)C(=O)N[C@@H](Cc1ccc(-c2ccccc2)cc1)C(=O)N[C@@H](Cc1ccc(-c2ccccc2)cc1)C(N)=O)[C@@H](C)O [RXL-3038, His-Aib-Glu-Gly-Thr-Ala-Thr-Ser-Asp-Bip-Bip-NH2] (H-H[Aib]EGTATSD[Bip][Bip]-NH2) |  |  | 37.4 |  |  |  | > 1000 | 5.55 | > 1000 fold | 
C[C@@H](O)[C@H](NC(=O)CNC(=O)[C@H](CCC(=O)O)NC(=O)C(C)(C)NC(=O)[C@@H](N)Cc1c[nH]cn1)C(=O)N[C@@](C)(Cc1ccccc1F)C(=O)N[C@H](C(=O)N[C@@H](CO)C(=O)N[C@@H](CC(=O)O)C(=O)NC(C)(C)C(=O)N[C@@H](Cc1ccc(-c2ccccc2)cc1)C(N)=O)[C@@H](C)O [RXL-3051, His-Aib-Glu-Gly-Thr-α-Me-Phe(2-F)-Thr-Ser-Asp-Aib-Bip-NH2] (H-H[Aib]EGT[αMePhe(2-F)]TSD[Aib][Bip]-NH2) |  | ≥ 100 | 26.8 |  | −1.34 |  |  |  | > 10,000 fold | 
C[C@@H](O)[C@H](NC(=O)CNC(=O)[C@H](CCC(=O)O)NC(=O)C(C)(C)NC(=O)[C@@H](N)Cc1c[nH]cn1)C(=O)N[C@@](C)(Cc1ccccc1F)C(=O)N[C@H](C(=O)N[C@@H](CO)C(=O)N[C@@H](CC(=O)O)C(=O)N[C@@H](Cc1ccc(-c2ccccc2)cc1)C(=O)NC(C)(C)C(N)=O)[C@@H](C)O [RXL-3052, His-Aib-Glu-Gly-Thr-α-Me-Phe(2-F)-Thr-Ser-Asp-Bip-Aib-NH2] (H-H[Aib]EGT[αMePhe(2-F)]TSD[Bip][Aib]-NH2) | more than 100 fold |  | 112 |  | 1.11 |  |  |  |  | 
semaglutide |  |  |  |  |  |  |  |  |  | 0.0062
